Experimental data from ChEMBL document CHEMBL1201862, “PubChem BioAssay data set” (2004).
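Method: 48-hour compound exposure of cells in 96-well plates, five concentrations, linear interpolation of endpoints. GI50: concentration for 50% inhibition of growth.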 Calls of active or inactive are those of the source. Cut-off read from the data, not from the text of the source: active = GI50 up to about 1.1 µM and inactive = higher.

Columns and labels:
Assay in all cases: NCI tumour cell line growth inhibition, 48 h
SK-OV-3 = system: SK-OV-3
M14 = system: M14
SF-539 = system: SF-539
HCT-116 = system: HCT-116
A549 = system: A549
UO-31 = system: UO-31
PC-3 = system: PC-3
T47D = system: T47D
BT-549 = system: BT-549
MOLT-4 = system: MOLT-4
SNB-19 = system: SNB-19
NCI-H460 = system: NCI-H460
KM12 = system: KM12
UACC-62 = system: UACC-62
COLO 205 = system: COLO 205
SK-MEL-2 = system: SK-MEL-2
SK-MEL-28 = system: SK-MEL-28
NCI-H522 = system: NCI-H522
NCI-H23 = system: NCI-H23
786-0 = system: 786-0
HCC 2998 = system: HCC 2998
OVCAR-4 = system: OVCAR-4
RXF 393 = system: RXF 393
CAKI-1 = system: CAKI-1
OVCAR-3 = system: OVCAR-3
EKVX = system: EKVX
MCF7 = system: MCF7
NCI/ADR-RES = system: NCI/ADR-RES
SK-MEL-5 = system: SK-MEL-5
A498 = system: A498
U-251 = system: U-251
K562 = system: K562
HL-60 = system: HL-60
SN12C = system: SN12C
MDA-N = system: MDA-N
DU-145 = system: DU-145
SF-268 = system: SF-268
TK-10 = system: TK-10
ACHN = system: ACHN
HOP-62 = system: HOP-62
Malme-3M = system: Malme-3M
SW-620 = system: SW-620
OVCAR-5 = system: OVCAR-5
SNB-75 = system: SNB-75
MDA-MB-435 = system: MDA-MB-435
MDA-MB-231 = system: MDA-MB-231
SF-295 = system: SF-295
UACC-257 = system: UACC-257
HT-29 = system: HT-29
CCRF-CEM = system: CCRF-CEM
Hs-578T = system: Hs-578T
SR = system: SR
NCI-H226 = system: NCI-H226
HCT-15 = system: HCT-15
RPMI-8226 = system: RPMI-8226
HOP-92 = system: HOP-92
IGROV-1 = system: IGROV-1
OVCAR-8 = system: OVCAR-8
LOX IMVI = system: LOX IMVI

Measured: GI50

CCOC(=O)CCC(NC(=O)Cc1ccc(Nc2nc3ccccc3nc2-c2cccs2)cc1)C(=O)OCC (stereo not drawn)
inactive: SK-OV-3 40.8 µM | M14 > 100 µM | SF-539 24.9 µM | HCT-116 > 100 µM | A549 64.1 µM | UO-31 > 100 µM | PC-3 45.7 µM | T47D 10.9 µM | BT-549 > 100 µM | MOLT-4 > 100 µM | SNB-19 24.7 µM | NCI-H460 81.3 µM | KM12 > 100 µM | UACC-62 64.6 µM | COLO 205 > 100 µM | SK-MEL-2 54.3 µM | SK-MEL-28 > 100 µM | NCI-H522 32 µM | NCI-H23 30.1 µM | 786-0 29.6 µM | HCC 2998 > 100 µM | OVCAR-4 27.4 µM | RXF 393 12.9 µM | CAKI-1 > 100 µM | OVCAR-3 34 µM | EKVX 53.7 µM | MCF7 41.1 µM | NCI/ADR-RES 61.8 µM | SK-MEL-5 37.4 µM | A498 69.7 µM | U-251 28.1 µM | K562 > 100 µM | HL-60 > 100 µM | SN12C > 100 µM | MDA-N > 100 µM | DU-145 44.2 µM | SF-268 24 µM | TK-10 23.5 µM | ACHN > 100 µM | HOP-62 31.9 µM | Malme-3M 49.8 µM | SW-620 > 100 µM | OVCAR-5 > 100 µM | SNB-75 18.1 µM | MDA-MB-435 38.1 µM | MDA-MB-231 > 100 µM | SF-295 53.2 µM | UACC-257 79.3 µM | HT-29 > 100 µM | CCRF-CEM > 100 µM | Hs-578T 25.1 µM | SR 29.3 µM | NCI-H226 > 100 µM | RPMI-8226 > 100 µM
> 100 µM: HCT-15

COc1ccc2c(c1)SC1=Nc3sc4cc(OC)ccc4[n+]3CN12
inactive: SK-OV-3 70.5 µM | M14 33.1 µM | HOP-92 2.23 µM | SF-539 42.2 µM | HCT-116 41 µM | A549 29.1 µM | UO-31 53 µM | PC-3 36.5 µM | T47D 4.99 µM | BT-549 66.8 µM | MOLT-4 4.62 µM | SNB-19 54.3 µM | NCI-H460 17.2 µM | IGROV-1 24.9 µM | KM12 11.2 µM | UACC-62 11.7 µM | COLO 205 2.96 µM | SK-MEL-2 15.8 µM | NCI-H522 1.38 µM | NCI-H23 15.7 µM | 786-0 29.9 µM | CAKI-1 32.9 µM | OVCAR-3 2.72 µM | EKVX 26.4 µM | MCF7 5.25 µM | NCI/ADR-RES 99.3 µM | OVCAR-8 29.4 µM | SK-MEL-5 4.1 µM | U-251 4.34 µM | K562 4.16 µM | HL-60 9.29 µM | SN12C 25.5 µM | MDA-N 26.1 µM | DU-145 29 µM | SF-268 2.89 µM | TK-10 51.4 µM | ACHN 49.8 µM | HOP-62 49.8 µM | Malme-3M 14.6 µM | SW-620 35.7 µM | OVCAR-5 96.2 µM | MDA-MB-435 26.9 µM | MDA-MB-231 29 µM | SF-295 31.3 µM | UACC-257 30.4 µM | HT-29 16.2 µM | CCRF-CEM 20.3 µM | Hs-578T 44.8 µM | SR 5.83 µM | RPMI-8226 20.7 µM
86.1 µM: HCT-15

Cc1cc(C)c2c(=O)n(CN3CCC(C#N)(c4ccccc4)CC3)sc2n1
inactive: SK-OV-3 > 100 µM | M14 50.2 µM | HOP-92 88.1 µM | SF-539 31.3 µM | HCT-116 > 100 µM | A549 97.9 µM | UO-31 17.8 µM | PC-3 76.7 µM | T47D > 100 µM | BT-549 91.2 µM | MOLT-4 49.4 µM | SNB-19 > 100 µM | NCI-H460 40.4 µM | IGROV-1 > 100 µM | KM12 > 100 µM | UACC-62 > 100 µM | COLO 205 30.8 µM | SK-MEL-2 > 100 µM | SK-MEL-28 42.5 µM | NCI-H522 14.3 µM | NCI-H23 34.4 µM | 786-0 22.7 µM | OVCAR-4 30.3 µM | RXF 393 26.3 µM | CAKI-1 39.3 µM | OVCAR-3 83 µM | EKVX 52.7 µM | MCF7 62.5 µM | NCI/ADR-RES 51.1 µM | OVCAR-8 28.6 µM | SK-MEL-5 72.1 µM | A498 > 100 µM | U-251 > 100 µM | K562 54 µM | HL-60 18.5 µM | SN12C > 100 µM | MDA-N 29.6 µM | DU-145 > 100 µM | SF-268 40 µM | LOX IMVI 26.2 µM | TK-10 25.6 µM | ACHN 21.7 µM | HOP-62 44.1 µM | Malme-3M 22.5 µM | SW-620 24.4 µM | OVCAR-5 30.9 µM | SNB-75 37.7 µM | MDA-MB-435 24.4 µM | MDA-MB-231 > 100 µM | SF-295 > 100 µM | UACC-257 22.2 µM | HT-29 39.9 µM | CCRF-CEM 20.3 µM | Hs-578T 47.8 µM | SR 49.9 µM | NCI-H226 > 100 µM
39.1 µM: HCT-15
